Data reported in patent publication US10190120B2, “Zn-DPA complex compounds and siRNA delivery systems containing the same” (KOREA INSTITUTE OF SCIENCE AND TECHNOLOGY, priority 2016, dated 2019).

Assays:
[1] = system: HCT116 cell line; experiment: siRNA delivery efficiency with biotin pre-treatment (competition); type: cell-based; settings: biotin 0.5 mM and 5 mM 30 minutes before, molar ratio 1:400, FIG. 6
Method: (§1) According to Experimental Example 1 (1), composites having a molar ratio of siRNA (luciferase siRNA, siLuc) and the Zn-DPA complex compound of 1:50, 1:100, 1:200, 1:400, 1:600, 1:800, and 1:1,000 were prepared, and the concentration of siLuc per sample was adjusted constantly at 20 nM. The composite was treated with ssPEI/CMV-LUC (1 μg) in HeLa, HepG2, and HCT116 cell lines, and was washed with a Dulbecco's phosphate buffered saline solution (DPBS) after 6 hours, and then the composite was treated in a serum-free medium. After 4 hours, the medium was exchanged with a 10% serum medium, and then the samples were cultivated at 37° C. for 24 hours. The cells were washed with the DPBS and were dissolved in a lysis buffer (200 μL), and then the degree of expression of the luciferase was determined by using a microplate fluorescence analyzer (VICTOR 3 V Multilabel Counter, PerkinElmer, Wellesley, Mass.). The results are illustrated in FIG. 5.
(§2) In order to evaluate the delivery efficiency of siRNA (luciferase siRNA, siLuc) for the Zn-DPA complex compound synthesized in Example 1-3, a cell experiment was performed in the same manner as in Experimental Example 4 by classifying the experimental groups into groups treated with biotin at a concentration of 0.5 mM and 5 mM 30 minutes before treating the groups with a composite of siRNA and the Zn-DPA complex compound, or a non-treatment group. […]

[2] = system: HepG2 cell line; experiment: as above; type: cell-based; settings: biotin 0.5 mM and 5 mM 30 minutes before, molar ratio 1:400, FIG. 6
Method: as §1, §2

## O=C(CCCCC1SC[C@H]2NC(=O)N[C@@H]12)NCCCCOc1cccc(CN(Cc2ccccn2)Cc2ccccn2)c1 (some centres unmarked) [Example 1-3]
[1]
  effect of biotin on cell delivery efficiency / amount of luciferase expressed: slight
[2]
  effect of biotin on cell delivery efficiency / amount of luciferase expressed: significantly varied depending on the presence or absence of biotin
